Experimental data as given in patent publication US8491946B2, “Elastase inhibitor” (Shiseido Company, Ltd., priority 2010, dated 2013).
Entries after “also recorded” stand apart in the source; their conditions may differ.

Biological target: T1, Human leukocyte-derived elastase (Homo sapiens, UniProt P08246)
T1 construct: purchased Elastin Product Co., Inc. CK828; host or cells: human leukocytes (leukocyte-derived)
T1 sequence (P08246 30-247 limits assumed): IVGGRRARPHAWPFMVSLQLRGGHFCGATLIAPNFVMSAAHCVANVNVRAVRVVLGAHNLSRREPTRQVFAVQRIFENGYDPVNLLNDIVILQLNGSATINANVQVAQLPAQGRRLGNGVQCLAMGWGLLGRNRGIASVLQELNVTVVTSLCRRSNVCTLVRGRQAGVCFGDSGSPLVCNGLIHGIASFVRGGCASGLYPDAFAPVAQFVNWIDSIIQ
Experiment: elastase inhibition assay with fluorogenic substrate
Assay type: biochemical
Details: FIG. 1; drug alone or raspberry extract combined with hydroxyproline; 60 minutes at 37° C.
Protocol: A solution containing 0.1 M HEPES and 0.5 M NaCl (pH 7.5) was used as a reaction buffer. Oxysuccinyl-(Ala)2-Pro-Val-MCA (Peptide Institute Cat. No. 3153-v) was used for the elastase substrate and dissolved in DMSO to a concentration of 80 mM followed by diluting to 0.16 mM with the reaction buffer. Human leukocyte-derived elastase (Elastin Product Co., Inc. Cat No. CK828) was diluted to 5 μg/mL with the reaction buffer.
25 μL aliquots of the 0.16 mM elastase substrate were dispensed into the wells of a 96-well plate followed by the addition of 50 μL of each drug. Next, 25 μL of ice-cooled 5 μg/mL elastase were added and incubated for 60 minutes at 37° C. followed by measuring fluorescence at 460 nm at an exciting wavelength of 369 nm. Raspberry extract BG manufactured by Maruzen Pharmaceuticals was used for the raspberry extract, L-hydroxyproline manufactured by Kyowa Hakko was used for the hydroxyproline, and Biodyne EMPP™ manufactured by Arch Personal Care Products L.P. was used for the yeast extract. Raspberry extract BG is a 1,3-butyleneglycol (50% aqueous solution) extract of raspberry fruit.

O=C(O)[C@@H]1C[C@@H](O)CN1 [hydroxyproline, L-hydroxyproline]
elastase inhibitory effects: elastase inhibitory effects were not demonstrated; also recorded: does not demonstrate elastase inhibitory effects alone
